In patent publication US6358885B1, “Substituted phenylheterocyclic herbicides” (Mississippi State University, priority 1992, dated 2002):

Tests used:
barnyardgrass = assay: Test B preemergence/postemergence greenhouse plant response rating 0 to 10; assay type: in vivo, Echinochloa crus-galli; conditions: 0 to 10 scale
How it was run: (§1)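 Planted seeds are treated preemergence with compound dissolved in a non-phytotoxic solvent, while postemergence applications go onto plants of two to eighteen cm. Plants stay in the greenhouse twelve to sixteen days and are then rated visually relative to controls.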

giant foxtail = assay: as above; assay type: in vivo, Setaria faberii; conditions: 0 to 10 scale
How it was run: as §1

lambsquarters = assay: as above; assay type: in vivo, Chenopodium album; conditions: 0 to 10 scale
How it was run: as §1

sugar beet = assay: as above; assay type: in vivo, Beta vulgaris; conditions: 0 to 10 scale
How it was run: as §1

velvetleaf [1] = assay: as above; assay type: in vivo, Abutilon theophrasti; conditions: 0 to 10 scale
How it was run: as §1

cotton = assay: Test C preemergence/postemergence greenhouse plant response rating 0 to 100; assay type: in vivo, Gossypium hirsutum; conditions: for Plant response rating, Cotton: 0 to 100 scale
How it was run: (§2)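 Compounds in non-phytotoxic solvent went onto sandy loam before emergence (seeded one day earlier) or onto plants at the one-to-four leaf stage. Duck salad was treated via flood water (~2.5 cm, maintained) over silt loam.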

crabgrass = assay: as above; assay type: in vivo, Digitaria sanguinalis; conditions: for Plant response rating, Crabgrass: 0 to 100 scale
How it was run: as §2

pigweed = assay: as above; assay type: in vivo, Amaranthusretroflexus; conditions: for Plant response rating Pigweed: 0 to 100 scale
How it was run: as §2

sorghum = assay: as above; assay type: in vivo, Sorghum bicolor; conditions: for Plant response rating, Sorghum: 0 to 100 scale
How it was run: as §2

velvetleaf [2] = assay: as above; assay type: in vivo, Abutilon theophrasti; conditions: for Plant response rating, Velvetleaf: 0 to 100 scale
How it was run: as §2

wild oat = assay: as above; assay type: in vivo, Avena fatua; conditions: for Plant response rating, Wild oat: 0 to 100 scale
How it was run: as §2

rice = assay: Test C flood test plant response rating 0 to 100; assay type: in vivo, Oryza sativa; conditions: for Plant response rating Rice Japonica: flood test species listed under POSTEMERGENCE, 0 to 100 scale
How it was run: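 Compounds in non-phytotoxic solvent applied preemergence to sandy loam one day after planting, postemergence at the 1–4 leaf stage, or to ~2.5 cm floodwater over silt loam.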

[3] = Rate 31 g/ha, under POSTEMERGENCE head (flood test species)

C#CC(C)Oc1cc(-c2nn3c(c2Cl)CCCC3)c(F)cc1Cl (centres unmarked) [Compound 36]
8: Plant response rating, Velvetleaf (velvetleaf [1]; PREEMERGENCE, Rate 50 g/ha)
5: Plant response rating, Barnyardgrass (barnyardgrass; Rate 200 g/ha, PREEMERGENCE) | Plant response rating, Giant foxtail (giant foxtail; PREEMERGENCE, Rate 50 g/ha)
10: Plant response rating, Lambsquarter (lambsquarters; POSTEMERGENCE, Rate 50 g/ha) | Plant response rating, Lambsquarter (lambsquarters; PREEMERGENCE, Rate 50 g/ha) | Plant response rating, Lambsquarter (lambsquarters; Rate 200 g/ha, POSTEMERGENCE) | Plant response rating, Lambsquarter (lambsquarters; Rate 200 g/ha, PREEMERGENCE) | Plant response rating, Sugar beet (sugar beet; POSTEMERGENCE, Rate 50 g/ha) | Plant response rating, Sugar beet (sugar beet; Rate 200 g/ha, POSTEMERGENCE) | Plant response rating, Velvetleaf (velvetleaf [1]; POSTEMERGENCE, Rate 50 g/ha) | Plant response rating, Velvetleaf (velvetleaf [1]; Rate 200 g/ha, POSTEMERGENCE) | Plant response rating, Velvetleaf (velvetleaf [1]; Rate 200 g/ha, PREEMERGENCE) | Plant response rating (0 to 100), Wild oat (wild oat; Rate 16 g/ha, POSTEMERGENCE)
50: Plant response rating, Crabgrass (crabgrass; POSTEMERGENCE, 62 g/ha) | Plant response rating (0 to 100), Sorghum (sorghum; Rate 31 g/ha, POSTEMERGENCE) | Plant response rating, Wild oat (wild oat; POSTEMERGENCE, 125 g/ha) | Plant response rating Rice Japonica (rice; 125 g/ha)
35: Plant response rating (0 to 100), Rice Japonica (rice; [3])
40: Plant response rating (0 to 100), Sorghum (sorghum; Rate 16 g/ha, POSTEMERGENCE) | Plant response rating Rice Japonica (rice; 62 g/ha)
20: Plant response rating (0 to 100), Crabgrass (crabgrass; Rate 16 g/ha, POSTEMERGENCE) | Plant response rating (0 to 100), Wild oat (wild oat; Rate 31 g/ha, POSTEMERGENCE) | Plant response rating (0 to 100), Rice Japonica (rice; Rate 16 g/ha, under POSTEMERGENCE head (flood test species))
9: Plant response rating, Barnyardgrass (barnyardgrass; POSTEMERGENCE, Rate 200 g/ha) | Plant response rating, Giant foxtail (giant foxtail; Rate 200 g/ha, PREEMERGENCE) | Plant response rating, Sugar beet (sugar beet; PREEMERGENCE, Rate 50 g/ha) | Plant response rating, Sugar beet (sugar beet; Rate 200 g/ha, PREEMERGENCE)
7: Plant response rating, Giant foxtail (giant foxtail; Rate 200 g/ha, POSTEMERGENCE)
100: Plant response rating, Cotton (cotton; POSTEMERGENCE, 62 g/ha) | Plant response rating, Cotton (cotton; POSTEMERGENCE, 125 g/ha) | Plant response rating (0 to 100), Cotton (cotton; Rate 16 g/ha, POSTEMERGENCE) | Plant response rating (0 to 100), Cotton (cotton; Rate 31 g/ha, POSTEMERGENCE) | Plant response rating Pigweed (pigweed; POSTEMERGENCE, 62 g/ha) | Plant response rating Pigweed (pigweed; POSTEMERGENCE, 125 g/ha) | Plant response rating (0 to 100), Pigweed (pigweed; Rate 16 g/ha, POSTEMERGENCE) | Plant response rating (0 to 100), Pigweed (pigweed; Rate 31 g/ha, POSTEMERGENCE) | Plant response rating, Velvetleaf (velvetleaf [2]; POSTEMERGENCE, 62 g/ha) | Plant response rating, Velvetleaf (velvetleaf [2]; POSTEMERGENCE, 125 g/ha) | Plant response rating (0 to 100), Velvetleaf (velvetleaf [2]; Rate 16 g/ha, POSTEMERGENCE) | Plant response rating (0 to 100), Velvetleaf (velvetleaf [2]; Rate 31 g/ha, POSTEMERGENCE)
6: Plant response rating, Barnyardgrass (barnyardgrass; POSTEMERGENCE, Rate 50 g/ha) | Plant response rating, Giant foxtail (giant foxtail; POSTEMERGENCE, Rate 50 g/ha)
70: Plant response rating, Sorghum (sorghum; POSTEMERGENCE, 125 g/ha)
3: Plant response rating, Barnyardgrass (barnyardgrass; PREEMERGENCE, Rate 50 g/ha)
60: Plant response rating, Crabgrass (crabgrass; POSTEMERGENCE, 125 g/ha) | Plant response rating, Sorghum (sorghum; POSTEMERGENCE, 62 g/ha)
30: Plant response rating (0 to 100), Crabgrass (crabgrass; Rate 31 g/ha, POSTEMERGENCE) | Plant response rating, Wild oat (wild oat; POSTEMERGENCE, 62 g/ha)

Fc1cc(Cl)ccc1-c1nn2c(c1Br)CCCC2 [Compound 52]
30: Plant response rating (0 to 100), Crabgrass (crabgrass; Rate 8 g/ha, POSTEMERGENCE) | Plant response rating (0 to 100), Sorghum (sorghum; POSTEMERGENCE, Rate 2 g/ha) | Plant response rating (0 to 100), Velvetleaf (velvetleaf [2]; Rate 8 g/ha, PREEMERGENCE) | Plant response rating (0 to 100), Wild oat (wild oat; Rate 31 g/ha, POSTEMERGENCE)
40: Plant response rating (0 to 100), Crabgrass (crabgrass; Rate 31 g/ha, POSTEMERGENCE) | Plant response rating (0 to 100), Sorghum (sorghum; Rate 8 g/ha, POSTEMERGENCE)
95: Plant response rating (0 to 100), Cotton (cotton; Rate 8 g/ha, POSTEMERGENCE) | Plant response rating (0 to 100), Cotton (cotton; Rate 31 g/ha, POSTEMERGENCE)
8: Plant response rating, Velvetleaf (velvetleaf [1]; PREEMERGENCE, Rate 50 g/ha)
50: Plant response rating (0 to 100), Pigweed (pigweed; Rate 8 g/ha, POSTEMERGENCE) | Plant response rating (0 to 100), Pigweed (pigweed; Rate 8 g/ha, PREEMERGENCE) | Plant response rating (0 to 100), Pigweed (pigweed; Rate 31 g/ha, POSTEMERGENCE) | Plant response rating (0 to 100), Sorghum (sorghum; Rate 31 g/ha, POSTEMERGENCE) | Plant response rating (0 to 100), Velvetleaf (velvetleaf [2]; POSTEMERGENCE, Rate 2 g/ha)
100: Plant response rating, Cotton (cotton; POSTEMERGENCE, 125 g/ha) | Plant response rating Pigweed (pigweed; POSTEMERGENCE, 125 g/ha) | Plant response rating Pigweed (pigweed; PREEMERGENCE, 125 g/ha) | Plant response rating (0 to 100), Pigweed (pigweed; Rate 31 g/ha, PREEMERGENCE) | Plant response rating, Velvetleaf (velvetleaf [2]; POSTEMERGENCE, 125 g/ha) | Plant response rating, Velvetleaf (velvetleaf [2]; PREEMERGENCE, 125 g/ha) | Plant response rating (0 to 100), Velvetleaf (velvetleaf [2]; Rate 31 g/ha, POSTEMERGENCE) | Plant response rating (0 to 100), Velvetleaf (velvetleaf [2]; Rate 31 g/ha, PREEMERGENCE)
10: Plant response rating, Giant foxtail (giant foxtail; Rate 200 g/ha, PREEMERGENCE) | Plant response rating, Lambsquarter (lambsquarters; PREEMERGENCE, Rate 50 g/ha) | Plant response rating, Lambsquarter (lambsquarters; Rate 200 g/ha, POSTEMERGENCE) | Plant response rating, Lambsquarter (lambsquarters; Rate 200 g/ha, PREEMERGENCE) | Plant response rating, Sugar beet (sugar beet; POSTEMERGENCE, Rate 50 g/ha) | Plant response rating, Sugar beet (sugar beet; Rate 200 g/ha, PREEMERGENCE) | Plant response rating, Velvetleaf (velvetleaf [1]; Rate 200 g/ha, POSTEMERGENCE) | Plant response rating, Velvetleaf (velvetleaf [1]; Rate 200 g/ha, PREEMERGENCE) | Plant response rating (0 to 100), Crabgrass (crabgrass; POSTEMERGENCE, Rate 2 g/ha) | Plant response rating (0 to 100), Crabgrass (crabgrass; Rate 31 g/ha, PREEMERGENCE) | Plant response rating, Sorghum (sorghum; PREEMERGENCE, 125 g/ha) | Plant response rating (0 to 100), Wild oat (wild oat; POSTEMERGENCE, Rate 2 g/ha)
7: Plant response rating, Giant foxtail (giant foxtail; Rate 200 g/ha, POSTEMERGENCE)
70: Plant response rating (0 to 100), Cotton (cotton; POSTEMERGENCE, Rate 2 g/ha) | Plant response rating, Crabgrass (crabgrass; POSTEMERGENCE, 125 g/ha)
9: Plant response rating, Barnyardgrass (barnyardgrass; POSTEMERGENCE, Rate 50 g/ha) | Plant response rating, Barnyardgrass (barnyardgrass; POSTEMERGENCE, Rate 200 g/ha) | Plant response rating, Barnyardgrass (barnyardgrass; Rate 200 g/ha, PREEMERGENCE) | Plant response rating, Giant foxtail (giant foxtail; PREEMERGENCE, Rate 50 g/ha) | Plant response rating, Lambsquarter (lambsquarters; POSTEMERGENCE, Rate 50 g/ha) | Plant response rating, Sugar beet (sugar beet; PREEMERGENCE, Rate 50 g/ha) | Plant response rating, Velvetleaf (velvetleaf [1]; POSTEMERGENCE, Rate 50 g/ha)
80: Plant response rating, Crabgrass (crabgrass; PREEMERGENCE, 125 g/ha)
20: Plant response rating (0 to 100), Pigweed (pigweed; POSTEMERGENCE, Rate 2 g/ha) | Plant response rating, Wild oat (wild oat; PREEMERGENCE, 125 g/ha) | Plant response rating (0 to 100), Wild oat (wild oat; Rate 8 g/ha, POSTEMERGENCE) | Plant response rating (0 to 100), Rice Japonica (rice; Rate 8 g/ha, under POSTEMERGENCE head (flood test species))
60: Plant response rating, Sorghum (sorghum; POSTEMERGENCE, 125 g/ha) | Plant response rating, Wild oat (wild oat; POSTEMERGENCE, 125 g/ha) | Plant response rating Rice Japonica (rice; 125 g/ha)
45: Plant response rating (0 to 100), Rice Japonica (rice; [3])
5: Plant response rating, Barnyardgrass (barnyardgrass; PREEMERGENCE, Rate 50 g/ha) | Plant response rating, Giant foxtail (giant foxtail; POSTEMERGENCE, Rate 50 g/ha)
0: Plant response rating, Cotton (cotton; PREEMERGENCE, 125 g/ha) | Plant response rating (0 to 100), Cotton (cotton; PREEMERGENCE, Rate 2 g/ha) | Plant response rating (0 to 100), Cotton (cotton; Rate 8 g/ha, PREEMERGENCE) | Plant response rating (0 to 100), Cotton (cotton; Rate 31 g/ha, PREEMERGENCE) | Plant response rating (0 to 100), Crabgrass (crabgrass; PREEMERGENCE, Rate 2 g/ha) | Plant response rating (0 to 100), Crabgrass (crabgrass; Rate 8 g/ha, PREEMERGENCE) | Plant response rating (0 to 100), Pigweed (pigweed; PREEMERGENCE, Rate 2 g/ha) | Plant response rating (0 to 100), Sorghum (sorghum; PREEMERGENCE, Rate 2 g/ha) | Plant response rating (0 to 100), Sorghum (sorghum; Rate 8 g/ha, PREEMERGENCE) | Plant response rating (0 to 100), Sorghum (sorghum; Rate 31 g/ha, PREEMERGENCE) | Plant response rating (0 to 100), Velvetleaf (velvetleaf [2]; PREEMERGENCE, Rate 2 g/ha) | Plant response rating (0 to 100), Wild oat (wild oat; PREEMERGENCE, Rate 2 g/ha) | Plant response rating (0 to 100), Wild oat (wild oat; Rate 8 g/ha, PREEMERGENCE) | Plant response rating (0 to 100), Wild oat (wild oat; Rate 31 g/ha, PREEMERGENCE) | Plant response rating (0 to 100), Rice Japonica (rice; POSTEMERGENCE section, flood test, Rate 2 g/ha)
90: Plant response rating (0 to 100), Velvetleaf (velvetleaf [2]; Rate 8 g/ha, POSTEMERGENCE)
